US9734575B2, “Method for assessing cell aging” (CHRONOS THERAPEUTICS LIMITED, priority 2013, dated 2017)

System: AM134bus-5 mutant C. elegans
Assay: FUDR treatment (transfer and topical) to prevent second generation progeny in synchronised worm populations on multi-well plates
Format: in vivo, Caenorhabditis elegans
Protocol: Topical and transfer methods of FUDR application were compared and the optimal concentration of the FUDR on 24 well, 12 well and 6 well plates, assessed.
AM134bus-5 and bus-8 drug sensitive worms were synchronized by bleaching and then plated onto multi-well plates and allowed to develop to adulthood. The adults in half of the wells were transferred to a separate well which had been soaked with varying amounts of FUDR solution using M9 buffer. The remaining wells were treated topically with FUDR.
The cultures were then regularly imaged by bright field microscopy and fed with OP50 when necessary.

O=c1[nH]c(=O)n([C@H]2C[C@H](O)[C@@H](CO)O2)cc1F [FUDR, 2′-Deoxy-5-fluorouridine]
progeny after 11 days (6 well plates, FUDR 2 μg/ml (25 μl of 10 mg/ml to 5 ml NGM), topical and transfer): no progeny can be observed
lowest effective dose at preventing the development of progeny (6 well plates, volume of 10 mg/ml FUDR to 5 ml of NGM, 1, 5, 10, 25 and 50 μl tested): 25 µL
optimal addition of 10 mg/ml FUDR per well for preventing progeny worms from developing (12 well plate (1.7 ug/ml in 2.5 ml NGM)): 0.015 mL
progeny after 11 days (12 well plates, FUDR 1.7 μg/ml (15 μl of 10 mg/ml to 2.5 ml NGM), topical application): no progeny can be observed
lowest effective dose at preventing the development of progeny (12 well plates, volume of 10 mg/ml FUDR to 2.5 ml of NGM, 1, 5, 10, 15 and 20 μl tested): 15 µL
progeny after 11 days (24 well plates, FUDR 2 μg/ml (5 μl of 10 mg/ml to 1 ml NGM), topical and transfer method): progeny can be observed
